According to patent US7279575B2, “Pyrimidylpyrrole derivatives active as kinase inhibitors” (Pfizer Italia S.r.l., priority 2003, dated 2007):
“And” between values parts separate entries of the source, which are not always exact repeats. Identical values can stand only once. Counter-ions that a name gives are not always drawn.

target: Cdc7/Dbf4 (Homo sapiens, UniProt O00311); test: Inhibition assay of Cdc7/Dbf4 activity (Dowex resin capture, 33P-ATP, MCM2 substrate); assay type: biochemical; details: MCM2 6 μM, ATP 2 μM, Cdc7/Dbf4 2 nM, 60 minutes at room temperature
Sequence (O00311 whole entry, species assumed): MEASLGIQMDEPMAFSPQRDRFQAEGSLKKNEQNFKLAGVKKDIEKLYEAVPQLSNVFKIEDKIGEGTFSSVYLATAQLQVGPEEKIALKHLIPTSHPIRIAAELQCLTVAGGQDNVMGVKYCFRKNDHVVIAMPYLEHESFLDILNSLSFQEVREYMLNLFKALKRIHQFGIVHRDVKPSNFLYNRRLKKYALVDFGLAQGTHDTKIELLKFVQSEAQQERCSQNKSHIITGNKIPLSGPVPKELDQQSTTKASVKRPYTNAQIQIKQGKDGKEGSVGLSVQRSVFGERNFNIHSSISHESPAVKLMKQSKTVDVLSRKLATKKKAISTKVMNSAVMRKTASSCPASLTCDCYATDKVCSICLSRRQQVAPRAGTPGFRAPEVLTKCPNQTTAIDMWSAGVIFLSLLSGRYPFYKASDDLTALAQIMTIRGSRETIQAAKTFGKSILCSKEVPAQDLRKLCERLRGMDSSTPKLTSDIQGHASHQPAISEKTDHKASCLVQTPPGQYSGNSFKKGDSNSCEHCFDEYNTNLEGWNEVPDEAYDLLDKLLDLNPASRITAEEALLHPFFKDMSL
Sequence (Q9UBU7 whole entry partner, species assumed): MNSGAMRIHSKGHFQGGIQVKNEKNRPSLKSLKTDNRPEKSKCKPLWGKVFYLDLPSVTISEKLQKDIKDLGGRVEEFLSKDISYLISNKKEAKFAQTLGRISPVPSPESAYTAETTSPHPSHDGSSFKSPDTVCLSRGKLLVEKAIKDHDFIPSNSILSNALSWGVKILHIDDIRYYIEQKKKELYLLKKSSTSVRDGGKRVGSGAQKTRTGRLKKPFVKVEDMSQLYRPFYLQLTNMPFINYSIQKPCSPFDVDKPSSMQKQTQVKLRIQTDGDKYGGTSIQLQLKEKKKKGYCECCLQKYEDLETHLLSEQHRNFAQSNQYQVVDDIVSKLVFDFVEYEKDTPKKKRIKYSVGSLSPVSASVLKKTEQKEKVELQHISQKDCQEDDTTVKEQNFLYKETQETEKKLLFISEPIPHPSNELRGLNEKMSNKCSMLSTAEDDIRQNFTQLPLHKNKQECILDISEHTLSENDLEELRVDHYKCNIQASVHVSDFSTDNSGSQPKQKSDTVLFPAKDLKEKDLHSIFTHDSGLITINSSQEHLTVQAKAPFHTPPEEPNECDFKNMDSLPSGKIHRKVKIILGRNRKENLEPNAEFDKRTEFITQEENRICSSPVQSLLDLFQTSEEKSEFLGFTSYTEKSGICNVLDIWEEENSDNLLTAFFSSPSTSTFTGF
Description: The inhibiting activity of putative Cdc7 inhibitors and the potency of selected compounds is determined through a method of assay based on the use of Dowex resin capture technology. The assay consists of the transfer of radioactivity labeled phosphate moiety by the kinase to an acceptor substrate. The resulting 33P-labeled product is separated from unreacted tracer, transferred into a scintillation cocktail and light emitted is measured in a scintillation counter.
Inhibition Assay of Cdc7/Dbf4 Activity
The inhibition assay of Cdc7/Dbf4 activity is performed according to the following protocol. The MCM2 substrate is trans-phosphorylated by the Cdc7/Dbf4 complex in the presence of ATP traced with γ^33-ATP. The reaction is stopped by addition of Dowex resin in the presence of formic acid. Dowex resin particles capture unreacted γ^33-ATP and drag it to the bottom of the well while ^33p phosphorylated MCM2 substrate remains in solution. The supernatant is collected, transferred into Optiplate plates and the extent of substrate phosphorylation is evaluated by β counting.
The inhibition assay of Cdc7/Dbf4 activity was performed in 96 wells plate according to the following protocol.
To each well of the plate were added: • 10 μl test compound (10 increasing concentrations in the nM to μM range to generate a dose-response curve). The solvent for test compounds contained 3% DMSO. (final concentration 1%) • 10 μl substrate MCM2 (6 μM final concentration), a mixture of cold ATP (2 μM final concentration) and radioactive ATP (1/5000 molar ratio with cold ATP). • 10 μl enzyme (Cdc7/Dbf4, 2 nM final concentration) that started the reaction. The buffer of the reaction consisted in 50 mM HEPES pH 7.9 containing 15 mM MgCl2, 2 mM DTT, 3 μM NaVO3, 2 mM glycerophosphate and 0.2 mg/ml BSA.
After incubation for 60 minutes at room temperature, the reaction was stopped by adding to each well 150 μl of Dowex resin in the presence of 150 mM formic acid. After another 60 min incubation, 50 μL of suspension were withdrawn and transferred into 96-well OPTIPLATEs containing 150 μl of MicroScint 40 (Packard); after 5-10 minutes shaking the plates were read for 1 min in a Packard TOP-Count radioactivity reader.
(§1) IC50 determination: inhibitors were tested at different concentrations ranging from 0.0005 to 10 μM. Experimental data were analyzed by the computer program Assay Explorer using the four parameter logistic equation: y=bottom+(top−bottom)/(1+10^((log|C50−x)*slope)) where x is the logarithm of the inhibitor concentration, y is the response; y starts at bottom and goes to top with a sigmoid shape.

| IC50 | Compound |
| --- | --- |
| 8 nM | CC1CNC(=O)c2cc(-c3ccnc(N)n3)[nH]c21 (racemic) [2-(2-aminopyrimidin-4-yl)-7-methyl-1,5,6,7-tetrahydro-4H-pyrrolo[3,2-c]pyridin-4-one] |
| 4 nM | CC1CNC(=O)c2cc(-c3ccnc(N)n3)[nH]c21 (single isomer, unassigned) [(7R or 7S)-2-(2-aminopyrimidin-4-yl)-7-methyl-1,5,6,7-tetrahydro-4H-pyrrolo[3,2-c]pyridin-4-on] |
| 5 nM | CC1CNC(=O)c2cc(-c3ccnc(N)n3)[nH]c21 (single isomer, unassigned) [(7R or 7S)-2-(2-aminopyrimidin-4-yl)-7-methyl-1,5,6,7-tetrahydro-4H-pyrrolo[3,2-c]pyridin-4-one] |
| 11 nM | Nc1nccc(-c2cc3c([nH]2)CCNC3=O)n1 [2-(2-aminopyrimidin-4-yl)-1,5,6,7-tetrahydro-4H-pyrrolo[3,2-c]pyridin-4-one hydrochloride] |
| 4 nM | Nc1nccc(-c2[nH]c3c(c2I)C(=O)NCC3)n1 [2-(2-aminopyrimidin-4-yl)-3-iodo-1,5,6,7-tetrahydro-4H-pyrrolo[3,2-c]pyridin-4-one] |
| 32 nM | CC1(C)Cc2[nH]c(-c3ccnc(N)n3)cc2C(=O)N1 [2-(2-aminopyrimidin-4-yl)-6,6-dimethyl-1,5,6,7-tetrahydro-4H-pyrrolo[3,2-c]pyridin-4-one hydrochloride] |
| 4 nM | CC(C)CC1Cc2[nH]c(-c3ccnc(N)n3)cc2C(=O)N1 (stereo not shown) [2-(2-aminopyrimidin-4-yl)-6-isobutyl-1,5,6,7-tetrahydro-4H-pyrrolo[3,2-c]pyridin-4-one] |
| 9 nM | CC(C)C1Cc2[nH]c(-c3ccnc(N)n3)cc2C(=O)N1 (stereo not shown) [2-(2-aminopyrimidin-4-yl)-6-isopropyl-1,5,6,7-tetrahydro-4H-pyrrolo[3,2-c]pyridin-4-one] |
| 26 nM | CC1Cc2[nH]c(-c3ccnc(N)n3)cc2C(=O)N1 (stereo not shown) [2-(2-aminopyrimidin-4-yl)-6-methyl-1,5,6,7-tetrahydro-4H-pyrrolo[3,2-c]pyridin-4-one] |
| 7 nM | CCC1(CC)CNC(=O)c2cc(-c3ccnc(N)n3)[nH]c21 [2-(2-aminopyrimidin-4-yl)-7,7-diethyl-1,5,6,7-tetrahydro-4H-pyrrolo[3,2-c]pyridin-4-one] |
| 2 nM | CC1(C)CNC(=O)c2cc(-c3ccnc(N)n3)[nH]c21 [2-(2-aminopyrimidin-4-yl)-7,7-dimethyl-1,5,6,7-tetrahydro-4H-pyrrolo[3,2-c]pyridin-4-one] |
| 8 nM | CC(C)C1CNC(=O)c2cc(-c3ccnc(N)n3)[nH]c21 (stereo not shown) [2-(2-aminopyrimidin-4-yl)-7-isopropyl-1,5,6,7-tetrahydro-4H-pyrrolo[3,2-c]pyridin-4-one] |
| 15 nM | Nc1nccc(-c2cc3c([nH]2)C(c2ccccc2)CNC3=O)n1 (stereo not shown) [2-(2-aminopyrimidin-4-yl)-7-phenyl-1,5,6,7-tetrahydro-4H-pyrrolo[3,2-c]pyridin-4-one hydrochloride] |
| 29 nM | O=C1NCC(c2ccccc2)c2[nH]c(-c3ccnc(Nc4ccccc4)n3)cc21 (stereo not shown) [2-(2-anilinopyrimidin-4-yl)-7-phenyl-1,5,6,7-tetrahydro-4H-pyrrolo[3,2-c]pyridin-4-one hydrochloride] |
| 7 nM | O=C1NCCc2[nH]c(-c3ccnc(Nc4ccccc4)n3)cc21 [2-(2-phenylaminopyrimidin-4-yl)-1,5,6,7-tetrahydro-4H-pyrrolo[3,2-c]pyridin-4-one hydrochloride] |
| 200 nM | O=C1NCCc2[nH]c(-c3ncnc4[nH]cnc34)cc21 [2-(9H-purin-6-yl)-1,5,6,7-tetrahydro-4H-pyrrolo[3,2-c]pyridin-4-one hydrochloride] |
| 270 nM | O=C1NCCc2[nH]c(-c3ccnc(NCc4ccccc4)n3)cc21 [2-[2-(benzylamino)pyrimidin-4-yl]-1,5,6,7-tetrahydro-4H-pyrrolo[3,2-c]pyridin-4-one] |
| 310 nM | CCCNc1nccc(-c2cc3c([nH]2)CCNC3=O)n1 [2-[2-(propylamino)pyrimidin-4-yl]-1,5,6,7-tetrahydro4H-pyrrolo[3,2-c]pyridin-4-one] |
| 19 nM | O=C1NCCc2[nH]c(-c3ccncn3)cc21 [2-pyrimidin-4-yl-1,5,6,7-tetrahydro-4H-pyrrolo[3,2-c]pyridin-4-one hydrochloride] |
| 74 nM and 87 nM | O=C1NCCc2[nH]c(-c3ccnc(NCc4ccco4)n3)cc21 [2-{2-[(2-furylmethyl)amino]pyrimidin-4-yl}-1,5,6,7-tetrahydro-4H-pyrrolo[3,2-c]pyridin-4-one] |
| 680 nM | O=C1NCCc2[nH]c(-c3ccnc(NCC4CCCCC4)n3)cc21 [2-{2-[(cyclohexylmethyl)amino]pyrimidin-4-yl}-1,5,6,7-tetrahydro-4H-pyrrolo[3,2-c]pyridin-4-one] |
| 90 nM | O=C1NCC(c2ccccc2)c2[nH]c(-c3ncnc4[nH]cnc34)cc21 (stereo not shown) [7-phenyl-2-(9H-purin-6-yl)-1,5,6,7-tetrahydro-4H-pyrrolo[3,2-c]pyridin-4-one hydrochloride] |
| 32 nM | O=C1NCC(c2ccccc2)c2[nH]c(-c3ccncn3)cc21 (stereo not shown) [7-phenyl-2-pyrimidin-4-yl-1,5,6,7-tetrahydro-4H-pyrrolo[3,2-c]pyridin-4-one hydrochloride] |
| 300 nM | O=C(Nc1nccc(-c2cc3c([nH]2)CCNC3=O)n1)c1ccccc1 [N-[4-(4-oxo-4,5,6,7-tetrahydro-1H-pyrrolo[3,2-c]pyridin-2-yl)pyrimidin-2-yl]benzamide] |
| 300 nM | CC(=O)Nc1ccc(CNc2nccc(-c3cc4c([nH]3)CCNC4=O)n2)cc1 [N-[4-({[4-(4-oxo-4,5,6,7-tetrahydro-1H-pyrrolo[3,2-c]pyridin-2-yl)pyrimidin-2-yl]amino}methyl)phenyl]acetamide trifluoroacetate] |
| 80 nM | CCOC(=O)Nc1nccc(-c2cc3c([nH]2)CCNC3=O)n1 [ethyl 4-(4-oxo-4,5,6,7-tetrahydro-1H-pyrrolo[3,2-c]pyridin-2-yl)pyrimidin-2-ylcarbamate] |

target: cdk2/Cyclin A (Homo sapiens, UniProt P24941); test: Inhibition assay of cdk2/Cyclin A activity (SPA, biotinylated histone H1); assay type: biochemical; details: histone H1 4 μM, ATP 10 μM, Cyclin A/CDK2 1.1 nM, 60 min at room temperature
Description: The inhibiting activity of putative cdk/cyclin inhibitors and the potency of selected compounds may be determined through a method of assay based on the use of the SPA technology (Amersham Pharmacia Biotech).
The assay consists of the transfer of radioactivity labelled phosphate moiety by the kinase to a biotinylated substrate. The resulting 33P-labelled biotinylated product is allowed to bind to streptavidin-coated SPA beads (biotin capacity 130 pmol/mg), and light emitted was measured in a scintillation counter.
Inhibition Assay of cdk2/Cyclin A Activity
Kinase reaction: 4 μM in house biotinylated histone H1 (Sigma # H-5505) substrate, 10 μM ATP (0.1 microCi P^33γ-ATP), 1.1 nM Cyclin A/CDK2 complex, inhibitor in a final volume of 30 μl buffer (TRIS HCl 10 mM pH 7.5, MgCl2 10 mM, DTT 7.5 mM+0.2 mg/ml BSA) were added to each well of a 96 U bottom. After incubation for 60 min at room temperature, the reaction was stopped by addition of 100 μl PBS buffer containing 32 mM EDTA, 500 μM cold ATP, 0.1% Triton X100 and 10 mg/ml streptavidin coated SPA beads. After 20 min incubation, 110 μL of suspension were withdrawn and transferred into 96-well OPTIPLATEs containing 100 μl of 5M CsCl. After 4 hours, the plates were read for 2 min in a Packard TOP-Count radioactivity reader.
as §1, with “0.0015” for “0.0005”, “GraphPad Prizm” for “Assay Explorer”, “y=bottom+(top−bottom)/(1+10^((loglC50−x)*slope))” for “y=bottom+(top−bottom)/(1+10^((log|C50−x)*slope))”

| IC50 | Compound |
| --- | --- |
| 50 nM | CC(C)CNc1nccc(-c2cc3c([nH]2)CCNC3=O)n1 [2-[2-(isobutylamino)pyrimidin-4-yl]-1,5,6,7-tetrahydro-4H-pyrrolo[3,2-c]pyridin-4-one] |
| 35 nM | CCCNc1nccc(-c2cc3c([nH]2)CCNC3=O)n1 [2-[2-(propylamino)pyrimidin-4-yl]-1,5,6,7-tetrahydro4H-pyrrolo[3,2-c]pyridin-4-one] |
| 80 nM | O=C1NCCc2[nH]c(-c3ccnc(NCc4ccco4)n3)cc21 [2-{2-[(2-furylmethyl)amino]pyrimidin-4-yl}-1,5,6,7-tetrahydro-4H-pyrrolo[3,2-c]pyridin-4-one] |
| 220 nM | O=C1NCCc2[nH]c(-c3ccnc(NCC4CCCCC4)n3)cc21 [2-{2-[(cyclohexylmethyl)amino]pyrimidin-4-yl}-1,5,6,7-tetrahydro-4H-pyrrolo[3,2-c]pyridin-4-one] |
| 20 nM | CC(=O)Nc1ccc(CNc2nccc(-c3cc4c([nH]3)CCNC4=O)n2)cc1 [N-[4-({[4-(4-oxo-4,5,6,7-tetrahydro-1H-pyrrolo[3,2-c]pyridin-2-yl)pyrimidin-2-yl]amino}methyl)phenyl]acetamide trifluoroacetate] |
